Measured values published in US10688093B2, “Methods, compositions, and uses of novel Fyn kinase inhibitors” (priority 2015, dated 2020).

Each compound was assayed against full-length recombinant human FYN A (Homo sapiens (Human), UniProt P06241) (assay: ADP-Glo Kinase Assay of FYN kinase inhibition). Conditions: primary screen, initial compounds.
Assay type: biochemical
Procedure, shortened: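 ADP-Glo read-out of peptide phosphorylation after 90 min RT with 12.5 pmol ATP and 100 pg 12-mer substrate. Enzyme was N-GST full-length human FYN A from insect cells, 3 pg, pre-incubated 30 min with compound, 10 points from 10 μM top, 3-fold steps; IC50 from curve.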

Sequence of full-length recombinant human FYN A (P06241 whole entry): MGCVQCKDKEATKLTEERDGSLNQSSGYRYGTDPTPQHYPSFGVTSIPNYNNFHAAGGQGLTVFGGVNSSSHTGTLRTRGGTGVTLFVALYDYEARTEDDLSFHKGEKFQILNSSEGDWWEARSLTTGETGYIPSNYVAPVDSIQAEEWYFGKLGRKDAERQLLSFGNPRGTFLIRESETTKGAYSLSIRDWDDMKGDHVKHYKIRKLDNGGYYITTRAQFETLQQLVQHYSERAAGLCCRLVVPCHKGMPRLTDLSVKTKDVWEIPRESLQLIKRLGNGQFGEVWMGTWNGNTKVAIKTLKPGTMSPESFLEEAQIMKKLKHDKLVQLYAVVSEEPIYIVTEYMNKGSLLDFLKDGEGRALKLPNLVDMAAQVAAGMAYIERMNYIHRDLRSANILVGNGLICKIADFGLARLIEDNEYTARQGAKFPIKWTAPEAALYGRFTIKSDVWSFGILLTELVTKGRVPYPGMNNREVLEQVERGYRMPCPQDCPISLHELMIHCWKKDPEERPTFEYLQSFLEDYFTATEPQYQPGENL

| Compound | IC50 |
| --- | --- |
| COc1cc(-c2cc(-c3ccc(N)cc3)cnc2N)cc(OC)c1OC [382_0087_0333, 5-(4-aminophenyl)-3-(3,4,5-trimethoxy-phenyl)pyridin-2-amine] | 0.971 µM |
| COc1cc(-c2cc(-c3ccc(F)cc3)cnc2N)cc(OC)c1OC [382_0087_0339, 5-(4-fluoro-phenyl)-3-(3,4,5-trimethoxy-phenyl)pyridin-2-amine] | 2.86 µM |
| COc1cc(-c2cc(-c3ccoc3)cnc2N)cc(OC)c1OC [382_0087_0343, 5-(3-furyl)-3-(3,4,5-trimethoxy-phenyl)pyridin-2-amine] | 12.1 µM |
| COc1cc(-c2cc(-c3ccc(C(N)=O)cc3)cnc2N)cc(OC)c1OC [382_0087_0346, 4-[6-amino-5-(3,4,5-trimethoxy-phenyl)-3-pyridyl]benzamide] | 0.4 µM |
| COc1cccc(-c2cnc(N)c(-c3cc(OC)c(OC)c(OC)c3)c2)c1 [382_0087_4140, 5-(3-methoxyphenyl)-3-(3,4,5-trimethoxyphenyl) pyridin-2-amine] | 9.5 µM |
| COc1cc(-c2cc(-c3cccc(NS(C)(=O)=O)c3)cnc2N)cc(OC)c1OC [382_0087_6488, N-[3-[6-amino-5-(3,4,5-trimethoxy-phenyl)-3-pyridyl]phenyl] methane-sulfonamide] | 0.525 µM |
| COc1cc(-c2cc(-c3ccc(O)cc3)cnc2N)cc(OC)c1OC [382_0087_7249, 4-[6-amino-5-(3,4,5-trimethoxy-phenyl)-3-pyridyl]phenol] | 1.73 µM |
| COc1cc(-c2cc(-c3ccc(C(=O)NC4CC4)cc3)cnc2N)cc(OC)c1OC [382_0087_7489, 4-[6-amino-5-(3,4,5-trimethoxy-phenyl)-3-pyridyl]-N-cyclopropyl-benzamide] | 0.507 µM |
| CN(C)CCCOc1ccc(-c2cnc(N)c(-c3cccc(N(C)C)c3)c2)cn1 [382_0135_0002, 3-[3-(dimethylamino)phenyl]-5-[6-[3-(dimethyl-amino)propoxy]-3-pyridyl]pyridin-2-amine] | 4.66 µM |
| CN(C)c1cccc(-c2cc(-c3cccnc3)cnc2N)c1 [382_0135_0071, 3-[3-(dimethyl-amino)phenyl]-5-(3-pyridyl)pyridin-2-amine] | 7.11 µM |
| COc1ccc(-c2cnc(N)c(-c3cccc(N(C)C)c3)c2)cc1OC [382_0135_0079, 5-(3,4-dimethoxy-phenyl)-3-[3-(dimethylamino)phenyl]pyridin-2-amine] | 5.05 µM |
| COc1cc(-c2cnc(N)c(-c3cccc(N(C)C)c3)c2)cc(OC)c1OC [382_0135_0087, 3-[3-(dimethyl-amino)phenyl]-5-(3,4,5-trimethoxy-phenyl)pyridin-2-amine] | 3.13 µM |
| CN(C)c1cccc(-c2cc(-c3cccc(C(=O)NCCO)c3)cnc2N)c1 [382_0135_0192, 3-[6-amino-5-[3-(dimethylamino)phenyl]-3-pyridyl]-N-(2-hydroxyethyl) benzamide] | 3.57 µM |
| CN1CCN(C(=O)c2cccc(-c3cnc(N)c(-c4cccc(N(C)C)c4)c3)c2)CC1 [382_0135_0200, [3-[6-amino-5-[3-(dimethylamino)phenyl]-3-pyridyl]phenyl]-(4-methyl-piperazin-1-yl)methanone] | 4.44 µM |
| CN(C)c1cccc(-c2cc(-c3cccc(CO)c3)cnc2N)c1 [382_0135_0291, [3-[6-amino-5-[3-(dimethylamino)phenyl]-3-pyridyl]phenyl] methanol] | 2.7 µM |
| COc1cc(-c2cnc(N)c(-c3cccc(N(C)C)c3)c2)ccc1O [382_0135_0314, 4-[6-amino-5-[3-(dimethylamino)phenyl]-3-pyridyl]-2-methoxy-phenol] | 2.11 µM |
| Cc1cc(-c2cnc(N)c(-c3cccc(N(C)C)c3)c2)cc(C)c1O [382_0135_0315, 4-[6-amino-5-[3-(dimethylamino)phenyl]-3-pyridyl]-2,6-dimethyl-phenol] | 4.2 µM |
| CN(C)c1cccc(-c2cc(-c3cccc(C(N)=O)c3)cnc2N)c1 [382_0135_0347, 3-[6-amino-5-[3-(dimethylamino)phenyl]-3-pyridyl] benzamide] | 3.52 µM |
| Nc1ncc(-c2ccc(N3CCOCC3)cc2)cc1-c1cccc(O)c1 [382_0284_0001, 3-[2-amino-5-(4-morpholino-phenyl)-3-pyridyl]phenol] | 4.64 µM |
| COc1ccc(-c2cnc(N)c(-c3cccc(O)c3)c2)cc1OC [382_0284_0079, 3-[2-amino-5-(3,4-dimethoxy-phenyl)-3-pyridyl]phenol] | 2 µM |
| COc1cc(-c2cnc(N)c(-c3cccc(O)c3)c2)cc(OC)c1OC [382_0284_0087, 3-[2-amino-5-(3,4,5-trimethoxy-phenyl)-3-pyridyl]phenol] | 1.02 µM |
| COc1ccc(-c2cnc(N)c(-c3ccc(CO)cc3)c2)cc1OC [382_0285_0079, [4-[2-amino-5-(3,4-dimethoxy-phenyl)-3-pyridyl]phenyl] methanol] | 5.13 µM |
| Cc1cc(-c2cnc(N)c(-c3ccc(CO)cc3)c2)cc(C)c1O [382_0285_0315, 4-[6-amino-5-[4-(hydroxymethyl)phenyl]-3-pyridyl]-2,6-dimethyl-phenol] | 4.64 µM |
| COc1cc(-c2cc(-c3ccccc3)cnc2N)ccc1O [382_0314_0061, 4-(2-amino-5-phenyl-3-pyridyl)-2-methoxy-phenol] | 1.48 µM |

| Compound | IC50 |
| --- | --- |
| COc1cc(-c2cc(-c3cc(OC)c(OC)c(OC)c3)cnc2N)ccc1O [382_0314_0087, 4-[2-amino-5-(3,4,5-trimethoxy-phenyl)-3-pyridyl]-2-methoxy-phenol] | 0.0806 µM |
| COc1cc(-c2cc(-c3ccc(F)c(Cl)c3)cnc2N)ccc1O [382_0314_0164, 4-[2-amino-5-(3-chloro-4-fluoro-phenyl)-3-pyridyl]-2-methoxy-phenol] | 11.3 µM |
| COc1cc(-c2cc(-c3ccc(S(C)(=O)=O)cc3)cnc2N)ccc1O [382_0314_0174, 4-[2-amino-5-(4-methylsulfonyl-phenyl)-3-pyridyl]-2-methoxy-phenol] | 0.349 µM |
| COc1cc(-c2cc(-c3cccc(Cl)c3)cnc2N)ccc1O [382_0314_0279, 4-[2-amino-5-(3-chlorophenyl)-3-pyridyl]-2-methoxy-phenol] | 3.51 µM |
| COc1ccc(-c2cnc(N)c(-c3ccc(O)c(OC)c3)c2)cc1 [382_0314_0280, 4-[2-amino-5-(4-methoxyphenyl)-3-pyridyl]-2-methoxy-phenol] | 4.16 µM |
| COc1cc(-c2cc(-c3cccc(F)c3)cnc2N)ccc1O [382_0314_0313, 4-[2-amino-5-(3-fluorophenyl)-3-pyridyl]-2-methoxy-phenol] | 2.03 µM |
| COc1cc(-c2cc(-c3cc(C)c(O)c(C)c3)cnc2N)ccc1O [382_0314_0315, 4-[6-amino-5-(4-hydroxy-3-methoxy-phenyl)-3-pyridyl]-2,6-dimethyl-phenol] | 0.526 µM |
| COc1cc(-c2cc(-c3ccc(F)cc3)cnc2N)ccc1O [382_0314_0339, 4-[2-amino-5-(4-fluorophenyl)-3-pyridyl]-2-methoxy-phenol] | 3.24 µM |
| COc1cc(-c2cc(-c3ccc(C)cc3)cnc2N)ccc1O [382_0314_4139, 4-[2-amino-5-(p-tolyl)-3-pyridyl]-2-methoxy-phenol] | 4.34 µM |
| COc1cccc(-c2cnc(N)c(-c3ccc(O)c(OC)c3)c2)c1 [382_0314_4140, 4-[2-amino-5-(3-methoxyphenyl)-3-pyridyl]-2-methoxy-phenol] | 1.2 µM |
| COCOc1ccc(-c2cc(-c3cccc(NC(C)=O)c3)cnc2N)cc1 [382_0341_0081] | 1.55 µM |
| COCOc1ccc(-c2cc(-c3cc(OC)c(OC)c(OC)c3)cnc2N)cc1 [382_0341_0087, 3-[4-(methoxymethoxy)phenyl]-5-(3,4,5-trimethoxy-phenyl)pyridin-2-amine] | 1.9 µM |
| COCOc1ccc(-c2cc(-c3cccc(CO)c3)cnc2N)cc1 [382_0341_0291, [3-[6-amino-5-[4-(methoxymethoxy)phenyl]-3-pyridyl]phenyl] methanol] | 4.62 µM |
| COCOc1ccc(-c2cc(-c3ccc(C(N)=O)cc3)cnc2N)cc1 [382_0341_0346, 4-[6-amino-5-[4-(methoxy-methoxy)phenyl]-3-pyridyl] benzamide] | 3.42 µM |
| COCOc1ccc(-c2cc(-c3cccc(C(N)=O)c3)cnc2N)cc1 [382_0341_0347, 3-[6-amino-5-[4-(methoxymethoxy)phenyl]-3-pyridyl]benzamide] | 3.02 µM |
| CC(=O)Nc1cccc(-c2cnc(N)c(-c3ccc(O)cc3)c2)c1 [382_7249_0081, N-[3-[6-amino-5-(4-hydroxyphenyl)-3-pyridyl]phenyl] acetamide] | 0.838 µM |
| COc1cc(-c2cnc(N)c(-c3ccc(O)cc3)c2)cc(OC)c1OC [382_7249_0087, 4-[2-amino-5-(3,4,5-trimethoxy-phenyl)-3-pyridyl]phenol] | 0.209 µM |
| CN(C)c1cccc(-c2cnc(N)c(-c3ccc(O)cc3)c2)c1 [382_7249_0135, 4-[2-amino-5-[3-(dimethylamino)phenyl]-3-pyridyl]phenol] | 2.19 µM |
| CS(=O)(=O)c1ccc(-c2cnc(N)c(-c3ccc(O)cc3)c2)cc1 [382_7249_0174, 4-[2-amino-5-(4-methylsulfonyl-phenyl)-3-pyridyl]phenol] | 1.25 µM |
| COc1cccc(-c2cnc(N)c(-c3ccc(O)cc3)c2)c1 [382_7249_4140, 4-[2-amino-5-(3-methoxyphenyl)-3-pyridyl]phenol] | 3.49 µM |
| CN(C)CCNC(=O)c1ccc(-c2cn3c(-c4ccncc4)cnc3cn2)cc1 [388_0069_0327, N-(2-dimethylamino-ethyl)-4-[3-(4-pyridyl)imidazo [1,2-a]pyrazin-6-yl]benzamide] | 6.91 µM |
| c1ccc(-c2cn3c(-c4ccsc4)cnc3cn2)cc1 [388_0074_0061, 6-phenyl-3-(3-thienyl)imidazo [1,2-a]pyrazine] | 3.95 µM |
| c1cncc(-c2cn3c(-c4ccsc4)cnc3cn2)c1 [388_0074_0071, 6-(3-pyridyl)-3-(3-thienyl)imidazo [1,2-a]pyrazine] | 4.34 µM |
| OCc1ccc(-c2cn3c(-c4ccsc4)cnc3cn2)cc1 [388_0074_0285, [4-[3-(3-thienyl)imidazo [1,2-a]pyrazin-6-yl]phenyl] methanol] | 2.35 µM |
